Values belong to the compound of their own block, whether it stands above or below them.
Tests used:
[1] = molecular target: T1, E3 ubiquitin-protein ligase CBL-B (Homo sapiens, UniProt Q13191); test: Inhibition of CBL-B (unknown origin) by FRET assay
[2] = molecular target: T1, E3 ubiquitin-protein ligase CBL-B; test: Inhibition of Cbl-b (unknown origin) by TR-FRET assay
[3] = molecular target: T1, E3 ubiquitin-protein ligase CBL-B
Description: Inhibition of N-terminal biotinylated Avi-tagged Cbl-b (36 to 427 residues) (unknown origin) by SPR assay

[4] = Metabolic stability in human liver microsomes assessed as intrinsic clearance
[5] = molecular target: T1, E3 ubiquitin-protein ligase CBL-B; test: Inhibition of Cbl-b (unknown origin) by Cellular substrate assay
[6] = Metabolic stability in mouse liver microsomes assessed as intrinsic clearance
[7] = molecular target: T1, E3 ubiquitin-protein ligase CBL-B; test: Inhibition of CBL-B (unknown origin) by biochemical assay
[8] = tested on: Panel NCI-60 (60 carcinoma cell lines); test: Anti-proliferative activity against human Panel NCI-60 (60 carcinoma cell lines)
in vitro = conditions: rat, plasma
[9] = molecular target: T1, E3 ubiquitin-protein ligase CBL-B; test: Inhibition of Cbl-b (unknown origin) using fluorophore-labeled probe by TR-FRET based Cb1-b displacement assay

T1 sequence (Q13191 whole entry): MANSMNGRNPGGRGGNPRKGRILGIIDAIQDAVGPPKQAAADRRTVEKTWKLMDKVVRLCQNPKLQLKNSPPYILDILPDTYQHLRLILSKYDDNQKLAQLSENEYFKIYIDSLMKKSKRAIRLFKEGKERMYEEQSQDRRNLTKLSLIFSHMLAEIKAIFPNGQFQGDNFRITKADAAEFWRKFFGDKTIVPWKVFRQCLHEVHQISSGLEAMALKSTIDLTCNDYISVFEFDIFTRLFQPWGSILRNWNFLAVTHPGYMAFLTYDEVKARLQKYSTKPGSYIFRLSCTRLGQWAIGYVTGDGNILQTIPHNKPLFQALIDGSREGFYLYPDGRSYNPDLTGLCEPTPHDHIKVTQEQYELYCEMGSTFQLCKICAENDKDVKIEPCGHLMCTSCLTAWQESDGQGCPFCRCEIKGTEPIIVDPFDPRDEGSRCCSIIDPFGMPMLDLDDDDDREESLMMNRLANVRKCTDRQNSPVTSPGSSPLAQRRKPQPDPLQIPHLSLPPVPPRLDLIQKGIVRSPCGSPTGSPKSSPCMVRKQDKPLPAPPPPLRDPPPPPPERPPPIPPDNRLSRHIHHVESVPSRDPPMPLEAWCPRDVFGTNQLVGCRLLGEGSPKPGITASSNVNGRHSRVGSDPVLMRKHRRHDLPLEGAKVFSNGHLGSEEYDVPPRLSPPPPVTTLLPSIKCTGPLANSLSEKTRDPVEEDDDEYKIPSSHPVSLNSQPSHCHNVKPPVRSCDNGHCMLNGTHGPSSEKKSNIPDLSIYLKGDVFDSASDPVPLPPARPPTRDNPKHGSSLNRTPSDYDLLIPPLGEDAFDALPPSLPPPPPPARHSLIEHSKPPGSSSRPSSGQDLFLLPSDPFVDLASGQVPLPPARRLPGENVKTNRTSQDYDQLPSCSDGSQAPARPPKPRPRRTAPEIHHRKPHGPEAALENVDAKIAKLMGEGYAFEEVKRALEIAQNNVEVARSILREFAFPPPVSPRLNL

SMILES: C[C@H]1CCCN(Cc2cc3c(c(C(F)(F)F)c2)CN(c2cccc([C@]4(c5nncn5C)C[C@@H](C)C4)c2)C3=O)C1
- IC50 [1]: ≤ 0.005 µM

SMILES: C[C@@H]1CN(Cc2cc3c(c(C(F)(F)F)c2)CN(c2cccc(C4(c5nncn5C)CC(F)(F)C4)c2)C3=O)CCO1
- IC50 [3]: ≤ 0.005 µM

SMILES: Cn1cnnc1CC1(c2cccc(N3Cc4c(cc(CN5CCCC(CC#N)C5)cc4C(F)(F)F)C3=O)c2)COC1 (stereo unspecified)
- IC50 [3]: 0.001 µM

SMILES: C[C@H](Cc1nncn1C)c1cccc(NC(=O)c2ccnc(C3CC3)n2)c1
- CLint scaled [4]: 1.8 L/h/kg
- IC50 [1]: 0.088 µM
- IC50 [5]: 1.7 µM
- CLint scaled [6]: 4.38 L/h/kg

SMILES: CN(C)c1c2c(c3nc4ccccc4c4c3c1N=C4N1C(=O)c3c4c(nc5ccccc35)C3=C(C(=O)CCN3)C(=[N+](C)C)C41)NCCC2=O (stereo in doubt; (-)-8)
- IC50 [7]: 7.5 µM

SMILES: C[C@H](Sc1nncn1C)c1cccc(NC(=O)c2ccnc(C3CC3)n2)c1
- IC50 [1]: 0.092 µM

SMILES: Cc1cc(C(=O)Nc2cccc(C3(Cc4nocc4C)COC3)c2)nc(C2CC2)n1
- IC50 [3]: < 0.1 µM

SMILES: CN(C)c1c2c(c3nc4ccccc4c4c3c1N=C4N1C(=O)c3c4c(nc5ccccc35)C3=C(C(=O)CCN3)C(=[N+](C)C)C41)NCCC2=O (stereo in doubt; (+)-8)
- IC50 [7]: 9.7 µM
- GI50 [8]: > 30 µM

SMILES: Cc1cc(C(=O)Nc2cccc(C3(Cc4nncn4C)COC3)c2)nc(C2CC2)n1
- half-life (in vitro): > 16.7 h
- CLint scaled [4]: 0.42 L/h/kg
- IC50 [5]: 0.79 µM
- CLint scaled [6]: 1.56 L/h/kg

SMILES: C[C@H](Cc1nncn1C)c1cccc(NC(=O)N2CCOc3cccnc32)c1
- IC50 [9]: < 0.1 µM

The next lines start with results.

- IC50 [2]: < 100 µM
SMILES: Cn1cnnc1CC1(c2cccc(-n3cc4c(C(F)(F)F)cc(CN5CCC6(CC6)C5)cn4c3=O)c2)COC1

- IC50 [3]: < 0.001 µM
SMILES: C[C@H]1CCCN(Cc2cc3c(c(C(F)(F)F)c2)CN(c2cccc([C@]4(Cc5nncn5C)C[C@@H](C#N)C4)c2)C3=O)C1

- IC50 [2]: < 100 µM
SMILES: Cn1cnnc1[C@H](c1cccc(-n2cc3c(C(F)(F)F)cc(CN4CCC[C@@](C)(O)C4)cn3c2=O)c1)C1CCC1

- IC50 [7]: 167 µM
SMILES: CN(C)c1c2c(c3nc4ccccc4c4c3c1N=C4)NCCC2=O
- GI50 [8]: 0.18 µM

- half-life (in vitro): 2.72 h
- IC50 [1]: 0.038 µM
- IC50 [5]: 0.78 µM
- CLint scaled [6]: 4.02 L/h/kg
SMILES: Cc1cc(C(=O)Nc2cccc([C@H](C)Cc3nncn3C)c2)nc(C2CC2)n1

Reference: ChEMBL document CHEMBL5537167, “Rising Star in Immunotherapy: Development and Therapeutic Potential of Small-Molecule Inhibitors Targeting Casitas B Cell Lymphoma-b (Cbl-b)” (J Med Chem, 2024)
